Measurements as given in US10800784B2, “Nitrogen-containing heterocyclic amide compound and pharmaceutical use thereof” (Japan Tobacco Inc., priority 2018, dated 2020).

Key:
human PDHK1 (hPDHK1) = human PDHK1 (hPDHK1) (Homo sapiens (Human), UniProt Q15118); assay: Inhibitory action of PDHK1 activity in vitro (residual PDH activity after PDHK reaction); type: biochemical; details: PDH/hPDHK1 complex solution, PDHK reaction at room temperature for 45 min, NADH absorbance at 340 nm; read-out: hPDK1 IC50
Sequence of human PDHK1 (hPDHK1) (Q15118 29-436): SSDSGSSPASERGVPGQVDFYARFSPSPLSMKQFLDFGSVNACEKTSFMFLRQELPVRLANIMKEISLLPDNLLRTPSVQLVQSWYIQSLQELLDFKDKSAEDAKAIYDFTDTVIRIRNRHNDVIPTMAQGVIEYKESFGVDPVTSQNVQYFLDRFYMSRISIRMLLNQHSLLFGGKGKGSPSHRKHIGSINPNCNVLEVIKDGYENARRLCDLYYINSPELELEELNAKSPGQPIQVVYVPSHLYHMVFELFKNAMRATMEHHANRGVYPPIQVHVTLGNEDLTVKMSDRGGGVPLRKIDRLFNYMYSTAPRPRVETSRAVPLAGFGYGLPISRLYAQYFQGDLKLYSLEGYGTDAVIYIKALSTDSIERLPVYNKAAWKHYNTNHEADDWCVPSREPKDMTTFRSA
Experimental: (§1) The inhibitory action of PDHK activity was assessed indirectly by measuring the residual PDH activity after PDHK reaction in the presence of a test compound.
(Inhibitory Action of PDHK1 Activity)
In the case of human PDHK1 (hPDHK1, NCBI Reference Database Accession number NM_002610.3), a 1.3 kbp fragment encoding this protein was isolated from human liver cDNA by polymerase chain reaction (PCR). Modified hPDHK1 cDNA wherein FLAG-Tag sequence was added to the N terminus was prepared by PCR and ligated to the NdeI/EcoRI site of pET-17b vector (Merck MGaA, model number 69663-3). The recombinant construct was transformed into Escherichia coli DH5a (TOYOBO, model number DNA-903). The recombinant clones were identified, and plasmid DNA was isolated and subjected to the DNA sequence analysis. One clone which had the expected nucleic acid sequence was selected for expression work.
For expression of hPDHK1 activity, Escherichia coli strain BL21(DE3) cells (Merck KGaA, model number 69450-4) were transformed with the pET17b vector containing modified hPDHK1 cDNA. The Escherichia coli were grown to an optical density 0.6 ([…]) at 30° C. Protein expression was induced by the addition of 500 μmol/L isopropyl-β-thiogalactopyranoside. The Escherichia coli were cultured at 20° C. for 17-18 hr and harvested by centrifugation.
The harvested Escherichia coli was resuspended in a suspension buffer (20 mmol/L N-(2-hydroxyethyl)piperazine-N′-2-ethanesulfonic acid-sodium hydroxide (HEPES-NaOH), 500 mmol/L sodium chloride, 1% ethylene glycol, and 0.1% polyoxyethylene-polyoxypropylene block copolymer (Pluronic F-68), complete, EDTA-free (pH 8.0)) and disrupted by a microfluidizer M-110H (MIZUHO INDUSTRIAL CO., LTD.) or ultrasonication. The precipitate was removed by centrifugation and the supernatant was added to DDDDK-tagged Protein PURIFICATION GEL (MBL, model number 3329). DDDDK-tagged Protein PURIFICATION GEL was washed with a washing buffer (20 mmol/L HEPES-NaOH, 500 mmol/L sodium chloride, 1% ethylene glycol, 0.1% pluronic F-68 (pH 8.0)) and the bound protein was eluted with elution buffer 1 (20 mmol/L HEPES-NaOH, 100 μg/mL peptide (amino acid sequence DYKDDDDK) (SEQ ID NO: 1), 500 mmol/L sodium chloride, 1% ethylene glycol, 0.1% pluronic F-68 (pH 8.0)).
The eluted fractions containing FLAG-Tagged protein were pooled, concentrated by an ultrafiltration method, added to a gel filtration column (HiLoad 26/60 Superdex 200 (GE Healthcare, model number 17-1070-01)), and eluted with elution buffer 2 (20 mmol/L HEPES-NaOH, 150 mmol/L sodium chloride, 0.5 mmol/L ethylenediaminetetraacetic acid (EDTA), 1% ethylene glycol, 0.1% pluronic F-68 (pH 8.0)). The eluted fractions were pooled and preserved at −80° C.
(§2) 0.025 U/mL PDH (porcine heart PDH complex, Sigma P7032) and 0.5 μg/mL hPDHK1 were mixed in an assay buffer (50 mmol/L 3-morpholinopropanesulfonic acid (pH 7.0), 20 mmol/L dipotassium hydrogen phosphate, 60 mmol/L potassium chloride, 2 mmol/L magnesium chloride, 0.4 mmol/L EDTA, 0.2% poloxamer, 2 mmol/L dithiothreitol), and the mixture was incubated at 4° C. overnight to obtain a PDH/hPDHK1 complex solution. In the assay buffer, 0.025 U/mL PDH was mixed and incubated at 4° C. overnight to prepare a PDH solution.
The test compounds were diluted with dimethyl sulfoxide (DMSO). To measure an inhibitory action of the test compound on the PDHK activity in the PDH/hPDHK1 complex solution, PDH/hPDHK1 complex solution (20 μL), test compound (1.5 μL) and 0.353 μmol/L ATP (diluted with assay buffer) (8.5 μL) were added to a 384 well microplate (Greiner Bio-One 781801) and PDHK reaction was performed at room temperature for 45 min (test compound well). DMSO (1.5 μL) was added to control wells instead of test compound. In addition, DMSO (1.5 μL) was added to blank wells instead of the test compound, and PDH solution was added instead of the PDH/hPDHK1 complex solution. […]

human PDHK2 (hPDHK2) = human PDHK2 (hPDHK2) (Homo sapiens (Human), UniProt Q15119); assay: Inhibitory action of PDHK2 activity in vitro (residual PDH activity after PDHK reaction); type: biochemical; details: PDH/hPDHK2 complex solution, PDHK reaction at room temperature for 45 min, NADH absorbance at 340 nm; read-out: kPDK2 IC50
Experimental: as §1
(Inhibitory Action of PDHK2 Activity)
In the case of human PDHK2 (hPDHK2, NCBI Reference Database Accession number NM_002611.4), modified hPDHK2 cDNA wherein FLAG-Tag sequence was added to the N terminus of hPDHK2 cDNA clone (pReceiver-M01/PDK2-GeneCopoeia) as the base was prepared by PCR and ligated to the NdeI/EcoRI site of pET-17b vector. The recombinant construct was transformed into Escherichia coli DH5a. The recombinant clones were identified, and plasmid DNA was isolated and subjected to the DNA sequence analysis. One clone which had the expected nucleic acid sequence was selected for expression work.
For expression of hPDHK2 activity, Escherichia coli strain BL21(DE3) cells were transformed with the pET17b vector containing modified hPDHK2 cDNA. The Escherichia coli were grown to an optical density 0.6 ([…]) at 30° C. Protein expression was induced by the addition of 500 μmol/L isopropyl-β-thiogalactopyranoside. The Escherichia coli were cultured at 20° C. for 17-18 hr and harvested by centrifugation. The harvested Escherichia coli was resuspended in a suspension buffer (20 mmol/L HEPES-NaOH, 500 mmol/L sodium chloride, 1% ethylene glycol, 0.1% pluronic F-68 (pH 8.0), cOmplete, EDTA-free (pH 8.0)), and disrupted by a microfluidizer. The precipitate was removed by centrifugation and the supernatant was added to DDDDK-tagged Protein PURIFICATION GEL. DDDDK-tagged Protein PURIFICATION GEL was washed with a washing buffer (20 mmol/L HEPES-NaOH, 500 mmol/L sodium chloride, 1% ethylene glycol, 0.1% pluronic F-68 (pH 8.0)) and the bound protein was eluted with elution buffer 1 (20 mmol/L HEPES-NaOH, 100 μg/mL peptide (amino acid sequence DYKDDDDK) (SEQ ID NO: 1), 500 mmol/L sodium chloride, 1% ethylene glycol, 0.1% pluronic F-68 (pH 8.0)). The eluted fractions containing FLAG-Tagged protein were pooled, concentrated by an ultrafiltration method, added to a gel filtration column (HiLoad 26/60 Superdex 200), and eluted with elution buffer 2 (20 mmol/L HEPES-NaOH, 150 mmol/L sodium chloride, 0.5 mmol/L ethylenediaminetetraacetic acid (EDTA), 1% ethylene glycol, 0.1% pluronic F-68 (pH 8.0)). The eluted fractions were pooled and preserved at −80° C.
as §2, with “PDH” for “PDH (porcine heart PDH complex, Sigma P7032)”, “hPDHK2” for “hPDHK1”, “PDH/hPDHK2” for “PDH/hPDHK1”
The test compounds were diluted with DMSO. To measure an inhibitory action of the test compound on the PDHK activity in the PDH/hPDHK2 complex solution, PDH/hPDHK2 complex solution (20 μL), test compound (1.5 μL) and 1.06 μmol/L ATP (diluted with assay buffer) (8.5 μL) were added to a 384 well microplate and PDHK reaction was performed at room temperature for 45 min (test compound well). DMSO (1.5 μL) was added to control wells instead of test compound. In addition, DMSO (1.5 μL) was added to blank wells instead of the test compound, and PDH solution was added instead of the PDH/hPDHK2 complex solution. To measure an inhibitory action of the test compound on the PDHK activity inherent in the PDH solution, a test compound was added and the PDH solution instead of the PDH/hPDHK2 complex solution was added to a blank+test compound well.
Then, 10 μL of substrates (5 mmol/L sodium pyruvate, 5 mmol/L Coenzyme A, 12 mmol/L NAD, 5 mmol/L thiamine pyrophosphate, diluted with assay buffer) were added. The mixture was incubated at room temperature for 90 min, and the residual PDH activity was measured. […]

C[C@H]1CN(C(=O)C2CCC(n3cccn3)CC2)Cc2cnc([C@@](C)(O)C(F)(F)F)n21 (stereo partly shown) [Example 60] was tested, and the IC50 (human PDHK1 (hPDHK1)) was 14 nM and the IC50 (human PDHK2 (hPDHK2)) was 9 nM.

Compound C[C@H]1CN(C(=O)c2ccnn2C2CC2)Cc2cnc([C@@](C)(O)C(F)(F)F)n21 [Example 32] has an IC50 (human PDHK1 (hPDHK1)) of 13 nM and an IC50 (human PDHK2 (hPDHK2)) of 10 nM.

Compound C[C@H]1CN(C(=O)C2(C)CN(C3CC(F)(F)C3)C2)Cc2cnc([C@@](C)(O)C(F)(F)F)n21 [Example 91] has an IC50 (human PDHK1 (hPDHK1)) of 49 nM and an IC50 (human PDHK2 (hPDHK2)) of 28 nM.

Compound C[C@H]1CN(C(=O)C(C)(C)c2ccc(-c3nn[nH]n3)cc2)Cc2onc([C@@](C)(O)C(F)(F)F)c21 [Example 120] has an IC50 (human PDHK1 (hPDHK1)) of 5 nM and an IC50 (human PDHK2 (hPDHK2)) of 9 nM.

With C[C@H]1CN(C(=O)c2ccc(N3CCN(C)CC3)cc2)Cc2cnc([C@@](C)(O)C(F)(F)F)n21 [Example 93] the IC50 (human PDHK1 (hPDHK1)) was 8 nM and the IC50 (human PDHK2 (hPDHK2)) was 11 nM.

C[C@H]1CN(C(=O)c2ccc(C3(O)CCCC3)cc2)Cc2cnc([C@@](C)(O)C(F)(F)F)n21 [Example 52] showed an IC50 (human PDHK1 (hPDHK1)) of 4 nM and an IC50 (human PDHK2 (hPDHK2)) of 6 nM.

With C[C@H]1CN(C(=O)c2ccc(F)c(-c3ncc(F)cc3C#N)c2)Cc2cnc([C@@](C)(O)C(F)(F)F)n21 [Example 69] the IC50 (human PDHK1 (hPDHK1)) was 5 nM and the IC50 (human PDHK2 (hPDHK2)) was 8 nM.

With C[C@H]1CN(C(=O)c2cnc(C3CC3)nc2)Cc2cnc([C@@](C)(O)C(F)(F)F)n21 [Example 94] the IC50 (human PDHK1 (hPDHK1)) was 40 nM and the IC50 (human PDHK2 (hPDHK2)) was 24 nM.

Compound C[C@H]1CN(C(=O)c2cc(-c3ccc(F)cc3)n[nH]2)Cc2cnc([C@@](C)(O)C(F)(F)F)n21 [Example 34] has an IC50 (human PDHK1 (hPDHK1)) of 10 nM and an IC50 (human PDHK2 (hPDHK2)) of 13 nM.

Work on C[C@H]1CN(C(=O)c2ncncc2-c2ccc(F)cc2)Cc2cnc([C@@](C)(O)C(F)(F)F)n21 [Example 97] yielded an IC50 (human PDHK1 (hPDHK1)) of 63 nM and an IC50 (human PDHK2 (hPDHK2)) of 26 nM.

For Cc1cc(C#N)ccc1-c1cc(C(=O)N2Cc3cnc([C@@](C)(O)C(F)(F)F)n3[C@@H](C)C2)ccn1 [Example 63], the IC50 (human PDHK1 (hPDHK1)) was 5 nM and the IC50 (human PDHK2 (hPDHK2)) was 7 nM.

In the case of C[C@H]1CN(C(=O)c2ccc(F)c(-c3ccc(F)cn3)c2)Cc2cnc([C@@](C)(O)C(F)(F)F)n21 [Example 70], the IC50 (human PDHK1 (hPDHK1)) is reported as 3 nM and the IC50 (human PDHK2 (hPDHK2)) is reported as 6 nM.

Compound C[C@H]1CN(C(=O)c2cc(C#N)nn2C2CC2)Cc2onc([C@@](C)(O)C(F)(F)F)c21 [Example 114] has an IC50 (human PDHK1 (hPDHK1)) of 5 nM and an IC50 (human PDHK2 (hPDHK2)) of 7 nM.

With C[C@H]1CN(C(=O)c2cccc(-c3ccccn3)c2)Cc2cnc([C@@](C)(O)C(F)(F)F)n21 [Example 49] the IC50 (human PDHK1 (hPDHK1)) was 3 nM and the IC50 (human PDHK2 (hPDHK2)) was 3 nM.

In the case of C[C@H]1CN(C(=O)c2ccc(C#N)c(C3CC3)c2)Cc2cnc([C@@](C)(O)C(F)(F)F)n21 [Example 28], the IC50 (human PDHK1 (hPDHK1)) is reported as 12 nM and the IC50 (human PDHK2 (hPDHK2)) is reported as 10 nM.

Work on C[C@H]1CN(C(=O)c2cncc(-c3ccc(F)cc3C#N)c2)Cc2cnc([C@@](C)(O)C(F)(F)F)n21 [Example 72] yielded an IC50 (human PDHK1 (hPDHK1)) of 7 nM and an IC50 (human PDHK2 (hPDHK2)) of 9 nM.

C[C@H]1CN(C(=O)c2c(Cl)c(C3CC3)nn2C)Cc2cnc([C@@](C)(O)C(F)(F)F)n21 [Example 22] was tested, and the IC50 (human PDHK1 (hPDHK1)) was 6 nM and the IC50 (human PDHK2 (hPDHK2)) was 8 nM.

With C[C@H]1CN(C(=O)c2cc(-c3ccc(C#N)cc3)n(C3CC3)n2)Cc2cnc([C@@](C)(O)C(F)(F)F)n21 [Example 53, 4-(1-cyclopropyl-3-((S)-5-methyl-3-((R)-1,1,1-trifluoro-2-hydroxypropan-2-yl)-5,6,7,8-tetrahydroimidazo[1,5-a]pyrazine-7-carbonyl)-1H-pyrazol-5-yl)benzonitrile] the IC50 (human PDHK1 (hPDHK1)) was 4 nM and the IC50 (human PDHK2 (hPDHK2)) was 8 nM.

For C[C@H]1CN(C(=O)c2cc(-c3ccc(C#N)cc3)nn2C)Cc2cnc([C@@](C)(O)C(F)(F)F)n21 [Example 31], the IC50 (human PDHK1 (hPDHK1)) was 9 nM and the IC50 (human PDHK2 (hPDHK2)) was 11 nM.

With C[C@H]1CN(C(=O)c2ccc(C3CC3)cc2)Cc2cnc([C@@](C)(O)C(F)(F)F)n21 [Example 18] the IC50 (human PDHK1 (hPDHK1)) was 7 nM and the IC50 (human PDHK2 (hPDHK2)) was 7 nM.

With C[C@H]1CN(C(=O)c2cc(C3(C)CC3)n(C)n2)Cc2onc([C@@](C)(O)C(F)(F)F)c21 [Example 119] the IC50 (human PDHK1 (hPDHK1)) was 4 nM and the IC50 (human PDHK2 (hPDHK2)) was 5 nM.

In the case of C[C@H]1CN(C(=O)c2ccc(=O)n(-c3ccc(F)cc3)c2)Cc2cnc([C@@](C)(O)C(F)(F)F)n21 [Example 57], the IC50 (human PDHK1 (hPDHK1)) is reported as 11 nM and the IC50 (human PDHK2 (hPDHK2)) is reported as 10 nM.

For C[C@H]1CN(C(=O)c2ccnc(-c3ccc(C#N)cc3)c2)Cc2cnc([C@@](C)(O)C(F)(F)F)n21 [Example 67], the IC50 (human PDHK1 (hPDHK1)) was 5 nM and the IC50 (human PDHK2 (hPDHK2)) was 7 nM.
